Values of other authors in patent publication US20250041461A1, “[177LU] LUTETIUM-PSMA I&T COMPOSITION AND DOSIMETRY, KIT, METHOD OF MAKING, AND METHOD OF USING THEREOF” (Curium US LLC, priority 2023, published 2025).
Where two headings read alike, the source gives them in different places.

Assays:
[1] = cited from earlier work
[2] = numerous studies; cited from earlier work

O=C([O-])CC[C@H](NC(=O)N[C@@H](CCCCNC(=O)CCCCCCC(=O)NCCCC[C@@H](NC(=O)[C@@H](Cc1ccccc1)NC(=O)[C@@H](Cc1ccc(O)c(I)c1)NC(=O)CC[C@H](C(=O)[O-])N1CCN(CC(=O)[O-])CCN(CC(=O)[O-])CCN(CC(=O)[O-])CC1)C(=O)[O-])C(=O)[O-])C(=O)[O-].[177Lu+3].[H+].[H+].[H+].[H+].[H+] [^177Lu-PSMA I&T, (3S,7S,26R,29R,32R,37R)-29-benzyl-32-(4-hydroxy-3-iodobenzyl)-5,13,20,28,31,34-hexaoxo-37-(4,7,10-tris(carboxymethyl)-1,4,7,10-tetraazacyclododecan-1-yl)-4,6,12,21,27,30,33-heptaazaheptatriacontane-1,3,7,26,37-pentacarboxylic acid; lutetium-177 (III)]
Effective Dose, Whole body, Range ([1]; Overall (n = 34)): 0.02-0.11 Sv/GBq
Absorbed Dose for Tumor Lesions, Lung metastases, Mean ± SD ([1]; Overall, n 3): 1.75 ± 0.92 Gy/GBq
Absorbed Dose for Tumor Lesions, Lung metastases, Range ([1]; Overall, n 3): 0.94-2.68 Gy/GBq
Absorbed Dose for Tumor Lesions, Liver metastases, Mean ± SD ([1]; Overall, n 8): 1.2 ± 0.67 Gy/GBq
Absorbed Dose for Tumor Lesions, Liver metastases, Range ([1]; Overall, n 8): 0.47-2.59 Gy/GBq
Absorbed Dose for Tumor Lesions, Lymph node metastases, Mean ± SD ([1]; Overall, n 8): 3.2 ± 2.2 Gy/GBq
Absorbed Dose for Tumor Lesions, Lymph node metastases, Range ([1]; Overall, n 8): 1.63-8.46 Gy/GBq
Absorbed Dose for Tumor Lesions, Bone metastases, Mean ± SD ([1]; Overall, n 74): 3.4 ± 2.7 Gy/GBq
Absorbed Dose for Tumor Lesions, Bone metastases, Range ([1]; Overall, n 74): 0.22-12.03 Gy/GBq
Absorbed Dose for Tumor Lesions, All metastases, Mean ± SD ([1]; Overall, n 93): 3.2 ± 2.6 Gy/GBq
Absorbed Dose for Tumor Lesions, All metastases, Range ([1]; Overall, n 93): 0.22-12.03 Gy/GBq
Absorbed Dose for Tumor Lesions, Lung metastases, Mean ± SD ([1]; Second cycle, n 1): 1.3 Gy/GBq
Absorbed Dose for Tumor Lesions, Liver metastases, Mean ± SD ([1]; Second cycle, n 2): 0.94 Gy/GBq
Absorbed Dose for Tumor Lesions, Liver metastases, Range ([1]; Second cycle, n 2): 0.70-1.17 Gy/GBq
Absorbed Dose for Tumor Lesions, Lymph node metastases, Mean ± SD ([1]; Second cycle, n 2): 5.2 Gy/GBq
Absorbed Dose for Tumor Lesions, Lymph node metastases, Range ([1]; Second cycle, n 2): 1.98-8.46 Gy/GBq
Absorbed Dose for Tumor Lesions, Bone metastases, Mean ± SD ([1]; Second cycle, n 21): 3.4 ± 2.4 Gy/GBq
Absorbed Dose for Tumor Lesions, Bone metastases, Range ([1]; Second cycle, n 21): 1.03-9.59 Gy/GBq
Absorbed Dose for Tumor Lesions, All metastases, Mean ± SD ([1]; Second cycle, n 26): 3.3 ± 2.5 Gy/GBq
Absorbed Dose for Tumor Lesions, All metastases, Range ([1]; Second cycle, n 26): 0.70-8.46 Gy/GBq
Absorbed Dose, Kidneys, Mean ± SD ([1]; Second cycle): 0.75 ± 0.19 Gy/GBq
Absorbed Dose, Kidneys, Range ([1]; Second cycle): 0.44-1.01 Gy/GBq
Absorbed Dose, Lacrimal glands, Mean ± SD ([1]; Second cycle): 4.1 ± 1.1 Gy/GBq
Absorbed Dose, Lacrimal glands, Range ([1]; Second cycle): 2.44-5.56 Gy/GBq
Absorbed Dose, Liver, Mean ± SD ([1]; Second cycle): 0.13 ± 0.05 Gy/GBq
Absorbed Dose, Liver, Range ([1]; Second cycle): 0.08-0.21 Gy/GBq
Absorbed Dose, Parotid glands, Mean ± SD ([1]; Second cycle): 0.59 Gy/GBq
Absorbed Dose, Parotid glands, Range ([1]; Second cycle): 0.47-0.80 Gy/GBq
Absorbed Dose, Submandibular glands, Mean ± SD ([1]; Second cycle): 0.71 ± 0.42 Gy/GBq
Absorbed Dose, Submandibular glands, Range ([1]; Second cycle): 0.40-1.70 Gy/GBq
Effective Dose, Whole body, Mean ± SD ([1]; Second cycle): 0.06 Sv/GBq
Effective Dose, Whole body, Range ([1]; Second cycle): 0.03-0.11 Sv/GBq
Absorbed Dose for Tumor Lesions, Lung metastases, Mean ± SD ([1]; Third cycle, n 1): 0.94 Gy/GBq
Absorbed Dose for Tumor Lesions, Lymph node metastases, Mean ± SD ([1]; Third cycle, n 1): 2.6 Gy/GBq
Absorbed Dose for Tumor Lesions, Lymph node metastases, Range ([1]; Third cycle, n 1): 18.87 Gy/GBq
Absorbed Dose for Tumor Lesions, Liver metastases, Mean ± SD ([1]; Third cycle, n 2): 0.95 Gy/GBq
Absorbed Dose for Tumor Lesions, Liver metastases, Range ([1]; Third cycle, n 2): 0.47-1.42 Gy/GBq
Absorbed Dose for Tumor Lesions, Bone metastases, Mean ± SD ([1]; Third cycle, n 10): 3.2 ± 2.5 Gy/GBq
Absorbed Dose for Tumor Lesions, Bone metastases, Range ([1]; Third cycle, n 10): 1.11-7.99 Gy/GBq
Absorbed Dose for Tumor Lesions, All metastases, Mean ± SD ([1]; Third cycle, n 14): 2.7 ± 2.3 Gy/GBq
Absorbed Dose for Tumor Lesions, All metastases, Range ([1]; Third cycle, n 14): 0.94-7.99 Gy/GBq
Absorbed Dose, Kidneys, Mean ± SD ([1]; Third cycle): 0.73 ± 0.22 Gy/GBq
Absorbed Dose, Kidneys, Range ([1]; Third cycle): 0.42-0.93 Gy/GBq
Absorbed Dose, Lacrimal glands, Mean ± SD ([1]; Third cycle): 3.5 ± 1.4 Gy/GBq
Absorbed Dose, Lacrimal glands, Range ([1]; Third cycle): 2.41-5.04 Gy/GBq
Absorbed Dose, Liver, Mean ± SD ([1]; Third cycle): 0.12 ± 0.06 Gy/GBq
Absorbed Dose, Liver, Range ([1]; Third cycle): 0.07-0.21 Gy/GBq
Absorbed Dose, Parotid glands, Mean ± SD ([1]; Third cycle): 0.49 Gy/GBq
Absorbed Dose, Parotid glands, Range ([1]; Third cycle): 0.32-0.64 Gy/GBq
Absorbed Dose, Submandibular glands, Mean ± SD ([1]; Third cycle): 0.83 ± 0.59 Gy/GBq
Absorbed Dose, Submandibular glands, Range ([1]; Third cycle): 0.33-1.68 Gy/GBq
Effective Dose, Whole body, Mean ± SD ([1]; Third cycle): 0.06 Sv/GBq
Effective Dose, Whole body, Range ([1]; Third cycle): 0.03-0.10 Sv/GBq
mean whole-body effective dose ([1]; all cycles): 0.41±0.18 Sv
mean whole-body effective dose per GBq ([1]; all cycles): 0.06 Sv/GBq
safety and tolerability [2]: safe and well tolerated
